Experimental data from ChEMBL document CHEMBL1131360, “Bis-S-acyl-2-thioethyl (SATE)-bearing monophosphate prodrug of beta-L-FD4C as potent anti-HBV agent” (Bioorg Med Chem Lett, 1998).

Columns and labels:
[1] = test system: CCRF-CEM; experiment: Tested for cytotoxicity in human T-cell lymphoblastic leukemia cell line (CEM); assay type: functional, cell-based
[2] = test system: M109; experiment: Tested for cytotoxicity in murine lung carcinoma (M109); assay type: functional, cell-based; settings: Mus musculus
[3] = test system: Colon 26; experiment: Tested for cytotoxicity in murine colon cancer (C26); assay type: functional, cell-based; settings: Mus musculus
[4] = test system: HepG2; experiment: Tested for cytotoxicity in human hepatoma cell (2.2.15); assay type: functional, cell-based
[5] = test system: B16; experiment: Tested for cytotoxicity in murine melanoma (B16); assay type: functional, cell-based; settings: Mus musculus
[6] = test system: HepG2; experiment: Tested for the ability to inhibit HBV DNA synthesis at a concentration of 4 nM using human hepatoblastoma cell line HepG2 2.2.15; assay type: functional
[7] = test system: HepG2; experiment: Tested for cytotoxicity in human hepatoma cell (2.2.15); not cytotoxic at the highest concentration tested (70 uM); assay type: functional, cell-based
[8] = test system: B16; experiment: Tested for cytotoxicity in murine melanoma (B16); not cytotoxic at the highest concentration tested (70 uM); assay type: functional, cell-based, Mus musculus
[9] = test system: HepG2; experiment: Tested for the ability to inhibit extracellular HBV DNA synthesis at a concentration of 10 nM; assay type: functional; settings: Homo sapiens
[10] = test system: Colon 26; experiment: Tested for cytotoxicity in murine colon cancer (C26); not cytotoxic at the highest concentration tested (70 uM); assay type: functional, cell-based, Mus musculus
[11] = test system: HepG2; experiment: Tested for the ability to inhibit HBV replication at a concentration of 19 nM using human hepatoblastoma cell line HepG2 2.2.15; assay type: functional
[12] = test system: HepG2; experiment: Tested for effective concentration against HBV treated with drug every 3 days for 9 days using human hepatoblastoma cell line HepG2 2.2.15; assay type: functional, cell-based
[13] = test system: M109; experiment: Tested for cytotoxicity in murine lung carcinoma (M109); not cytotoxic at the highest concentration tested (70 uM); assay type: functional, cell-based, Mus musculus
[14] = test system: HepG2; experiment: Tested for the ability to inhibit HBV replication at a concentration of 40 nM using human hepatoblastoma cell line HepG2 2.2.15; assay type: functional
[15] = test system: HepG2; experiment: Tested for the ability to inhibit HBV DNA synthesis at a concentration of 7 nM using human hepatoblastoma cell line HepG2 2.2.15; assay type: functional

Q: Which results are given for `CC(=O)SCCOP(=O)(OCCS)OC[C@H]1C=C[C@@H](n2cc(F)c(N)nc2=O)O1` (some centres not stated)?
A: IC50 [1]: 52 µM; IC50 [2]: > 70 µM; IC50 [3]: > 70 µM; IC50 [4]: > 70 µM; IC50 [5]: > 70 µM

Q: `CC(=O)SCCOP(=O)(OCCSC(C)=O)OC[C@H]1CC[C@@H](n2cnc3c(N)ncnc32)O1` was tested. Which IC50 [1] did it give?
A: 13 µM

Q: What about the IC50 [2] of the same compound?
A: > 70 µM

Q: And the IC50 [3]?
A: > 70 µM

Q: What about the IC50 [4] of the same compound?
A: > 70 µM

Q: And the IC50 [5]?
A: > 70 µM

Q: For `CC(=O)SCCOP(=O)(OCCSC(C)=O)OC[C@H]1C=C[C@@H](n2cc(F)c(N)nc2=O)O1`, which IC50 [1] is on record?
A: 52 µM

Q: And the inhibition at 0.004 µM [6]?
A: 50%

Q: What about the IC50 [7] of the same compound?
A: Not Active

Q: And the IC50 [8]?
A: Not Active

Q: What about the inhibition at 0.01 µM [9] of the same compound?
A: 85%

Q: What about the IC50 [10] of the same compound?
A: Not Active

Q: And the inhibition at 0.019 µM [11]?
A: 90%

Q: What about the EC50 [12] of the same compound?
A: 0.002 µM

Q: And the IC50 [13]?
A: Not Active

Q: With `Nc1nc(=O)n([C@@H]2C=C[C@H](CO)O2)cc1F` [ELVUCITABINE] as the compound, how does the IC50 [1] read?
A: 13 µM

Q: What about the inhibition at 0.04 µM [14] of the same compound?
A: 70%

Q: What about the IC50 [7] of the same compound?
A: Not Active

Q: And the IC50 [8]?
A: Not Active

Q: What about the IC50 [10] of the same compound?
A: Not Active

Q: And the inhibition at 0.007 µM [15]?
A: 50%

Q: What about the EC50 [12] of the same compound?
A: 0.017 µM

Q: And the IC50 [13]?
A: Not Active
